Measurements: patent US20240108602A1, “TREATMENT OF MENTAL DISORDERS” (GH Research Ireland Limited, priority 2022, published 2024)
Where “and” joins values, the source holds several entries; their conditions need not be identical. Equal entries are not always repeated.

Test system: patients with treatment-resistant major depressive disorder (TRD)
Experiment: Phase 1/2 clinical trial of inhaled 5-MeO-DMT in TRD patients (12 mg, 18 mg, individualized dosing regimen IDR 6/12/18 mg)
Description: Patients were assigned to different groups. In the context of the present invention, the group who received a single, 12 mg dose and the group who underwent an intra-day individualized dosing regimen (IDR) that allowed for multiple, escalating doses (6 mg, 12 mg and 18 mg) within a single day, driven by the intensity of the patient-reported psychedelic experience are of interest.
The data gathered include the assessment of the treated patients against several scales including the Montgomery-Åsberg Depression Rating Scale (MADRS) and the Brief Psychiatric Rating Scale (BPRS).
This trial was designed in two parts. Part A was an open-label, single-arm, single-dose Phase 1 trial with two dose levels (12 mg (n=4) and 18 mg (n=4)). […] The primary endpoint of Part B was to assess the effects on the severity of depression, as assessed by the proportion of patients in remission on day seven after dosing, defined as a MADRS total score of less than or equal to 10.

COc1ccc2[nH]cc(CCN(C)C)c2c1 [5-MeO-DMT]
MADRS Concentration Difficulties improvement (points) (12 mg n=4, 2 h): 9 | MADRS Concentration Difficulties percentage improvement (12 mg n=4, 2 h): 56% and 56.25% | MADRS Concentration Difficulties summed score (12 mg n=4, 2 h): 7 | MADRS Inability to Feel improvement (points) (12 mg n=4, 2 h): 7 | MADRS Inability to Feel percentage improvement (12 mg n=4, 2 h): 44% and 43.75% | MADRS Inability to Feel summed score (12 mg n=4, 2 h): 9 | MADRS Inner Tension improvement (points) (12 mg n=4, 2 h): 11 | MADRS Inner Tension percentage improvement (12 mg n=4, 2 h): 85% and 84.62% | MADRS Inner Tension summed score (12 mg n=4, 2 h): 2 | MADRS Lassitude improvement (points) (12 mg n=4, 2 h): 6 | MADRS Lassitude percentage improvement (12 mg n=4, 2 h): 38% and 37.50% | MADRS Lassitude summed score (12 mg n=4, 2 h): 10 | MADRS Pessimistic Thoughts improvement (points) (12 mg n=4, 2 h): 8 | MADRS Pessimistic Thoughts percentage improvement (12 mg n=4, 2 h): 50% | MADRS Pessimistic Thoughts summed score (12 mg n=4, 2 h): 8 | MADRS Suicidal Thoughts improvement (points) (12 mg n=4, 2 h): 5 | MADRS Suicidal Thoughts percentage improvement (12 mg n=4, 2 h): 63% and 62.50% | MADRS Suicidal Thoughts summed score (12 mg n=4, 2 h): 3 | BPRS Anxiety improvement (points) (12 mg n=4, 3 h): 14 | BPRS Anxiety percentage improvement (12 mg n=4, 3 h): 56% | BPRS Anxiety summed score (12 mg n=4, 3 h): 11 | BPRS Blunted Affect improvement (points) (12 mg n=4, 3 h): 3 | BPRS Blunted Affect percentage improvement (12 mg n=4, 3 h): 27% and 27.27% | BPRS Blunted Affect summed score (12 mg n=4, 3 h): 8 | BPRS Emotional Withdrawal improvement (points) (12 mg n=4, 3 h): 2 | BPRS Emotional Withdrawal percentage improvement (12 mg n=4, 3 h): 15% and 15.38% | BPRS Emotional Withdrawal summed score (12 mg n=4, 3 h): 11 | BPRS Guilt Feelings improvement (points) (12 mg n=4, 3 h): 9 | BPRS Guilt Feelings percentage improvement (12 mg n=4, 3 h): 50% | BPRS Guilt Feelings summed score (12 mg n=4, 3 h): 9 | BPRS Tension improvement (points) (12 mg n=4, 3 h): 5 | BPRS Tension percentage improvement (12 mg n=4, 3 h): 36% and 35.71% | BPRS Tension summed score (12 mg n=4, 3 h): 9 | BPRS Anxiety improvement (points) (12 mg n=4, Day 1): 19 | BPRS Anxiety percentage improvement (12 mg n=4, Day 1): 76% | BPRS Anxiety summed score (12 mg n=4, Day 1): 6 | BPRS Blunted Affect improvement (points) (12 mg n=4, Day 1): 5 | BPRS Blunted Affect percentage improvement (12 mg n=4, Day 1): 45% and 45.45% | BPRS Blunted Affect summed score (12 mg n=4, Day 1): 6 | BPRS Emotional Withdrawal improvement (points) (12 mg n=4, Day 1): 5 | BPRS Emotional Withdrawal percentage improvement (12 mg n=4, Day 1): 38% and 38.46% | BPRS Emotional Withdrawal summed score (12 mg n=4, Day 1): 8 | BPRS Guilt Feelings improvement (points) (12 mg n=4, Day 1): 13 | BPRS Guilt Feelings percentage improvement (12 mg n=4, Day 1): 72% and 72.22% | BPRS Guilt Feelings summed score (12 mg n=4, Day 1): 5 | BPRS Tension improvement (points) (12 mg n=4, Day 1): 8 | BPRS Tension percentage improvement (12 mg n=4, Day 1): 57% and 57.14% | BPRS Tension summed score (12 mg n=4, Day 1): 6 | MADRS Concentration Difficulties improvement (points) (12 mg n=4, Day 1): 14 | MADRS Concentration Difficulties percentage improvement (12 mg n=4, Day 1): 88% and 87.50% | MADRS Concentration Difficulties summed score (12 mg n=4, Day 1): 2 | MADRS Inability to Feel improvement (points) (12 mg n=4, Day 1): 15 | MADRS Inability to Feel percentage improvement (12 mg n=4, Day 1): 94% and 93.75% | MADRS Inability to Feel summed score (12 mg n=4, Day 1): 1 | MADRS Inner Tension improvement (points) (12 mg n=4, Day 1): 10 | MADRS Inner Tension percentage improvement (12 mg n=4, Day 1): 77% and 76.92% | MADRS Inner Tension summed score (12 mg n=4, Day 1): 3 | MADRS Lassitude improvement (points) (12 mg n=4, Day 1): 16 | MADRS Lassitude percentage improvement (12 mg n=4, Day 1): 100% | MADRS Lassitude summed score (12 mg n=4, Day 1): 0 | MADRS Pessimistic Thoughts improvement (points) (12 mg n=4, Day 1): 9 | MADRS Pessimistic Thoughts percentage improvement (12 mg n=4, Day 1): 56% and 56.25% | MADRS Pessimistic Thoughts summed score (12 mg n=4, Day 1): 7 | MADRS Reduced Sleep improvement (points) (12 mg n=4, Day 1): 2 | MADRS Reduced Sleep percentage improvement (12 mg n=4, Day 1): 17% and 16.67% | MADRS Reduced Sleep summed score (12 mg n=4, Day 1): 10 | MADRS Suicidal Thoughts improvement (points) (12 mg n=4, Day 1): 3 | MADRS Suicidal Thoughts percentage improvement (12 mg n=4, Day 1): 38% and 37.50% | MADRS Suicidal Thoughts summed score (12 mg n=4, Day 1): 5 | BPRS Anxiety improvement (points) (12 mg n=4, Day 7): 19 | BPRS Anxiety percentage improvement (12 mg n=4, Day 7): 76% | BPRS Anxiety summed score (12 mg n=4, Day 7): 6 | BPRS Blunted Affect improvement (points) (12 mg n=4, Day 7): 6 | BPRS Blunted Affect percentage improvement (12 mg n=4, Day 7): 55% and 54.55% | BPRS Blunted Affect summed score (12 mg n=4, Day 7): 5 | BPRS Emotional Withdrawal improvement (points) (12 mg n=4, Day 7): 7 | BPRS Emotional Withdrawal percentage improvement (12 mg n=4, Day 7): 54% and 53.85% | BPRS Emotional Withdrawal summed score (12 mg n=4, Day 7): 6 | BPRS Guilt Feelings improvement (points) (12 mg n=4, Day 7): 13 | BPRS Guilt Feelings percentage improvement (12 mg n=4, Day 7): 72% and 72.22% | BPRS Guilt Feelings summed score (12 mg n=4, Day 7): 5 | BPRS Tension improvement (points) (12 mg n=4, Day 7): 8 | BPRS Tension percentage improvement (12 mg n=4, Day 7): 57% and 57.14% | BPRS Tension summed score (12 mg n=4, Day 7): 6 | MADRS Concentration Difficulties improvement (points) (12 mg n=4, Day 7): 13 | MADRS Concentration Difficulties percentage improvement (12 mg n=4, Day 7): 81% and 81.25% | MADRS Concentration Difficulties summed score (12 mg n=4, Day 7): 3 | MADRS Inability to Feel improvement (points) (12 mg n=4, Day 7): 15 | MADRS Inability to Feel percentage improvement (12 mg n=4, Day 7): 94% and 93.75% | MADRS Inability to Feel summed score (12 mg n=4, Day 7): 1 | MADRS Inner Tension improvement (points) (12 mg n=4, Day 7): 8 | MADRS Inner Tension percentage improvement (12 mg n=4, Day 7): 62% and 61.54% | MADRS Inner Tension summed score (12 mg n=4, Day 7): 5 | MADRS Lassitude improvement (points) (12 mg n=4, Day 7): 13 | MADRS Lassitude percentage improvement (12 mg n=4, Day 7): 81% and 81.25% | MADRS Lassitude summed score (12 mg n=4, Day 7): 3 | MADRS Pessimistic Thoughts improvement (points) (12 mg n=4, Day 7): 8 | MADRS Pessimistic Thoughts percentage improvement (12 mg n=4, Day 7): 50% | MADRS Pessimistic Thoughts summed score (12 mg n=4, Day 7): 8 | MADRS Reduced Sleep improvement (points) (12 mg n=4, Day 7): 6 | MADRS Reduced Sleep percentage improvement (12 mg n=4, Day 7): 50% | MADRS Reduced Sleep summed score (12 mg n=4, Day 7): 6 | MADRS Suicidal Thoughts improvement (points) (12 mg n=4, Day 7): 1 | MADRS Suicidal Thoughts percentage improvement (12 mg n=4, Day 7): 13% and 12.50% | MADRS Suicidal Thoughts summed score (12 mg n=4, Day 7): 7 | patients with MADRS remission (12 mg n=4, day seven): 50% | mean MADRS change from baseline (12 mg, day seven): −21.0 | mean MADRS change from baseline, percent (12 mg, day seven): −65% | further patients with MADRS clinical response (18 mg n=4, day seven): 25% | patients with MADRS remission (18 mg n=4, day seven): 25% | mean MADRS change from baseline, percent (18 mg, day seven): −41% | patients maintaining remission (fraction) (Day 7): ⅞
